The text below walks through data of patent US4866069A, “Substance 4181-2 and its derivatives having anti-leukemia activity” (Taiho Pharmaceutical Company, Limited, priority 1986, dated 1989).

The structures appear in SMILES notation. Converted amounts (≈) assume the structure as drawn. Some results are limits rather than exact numbers.

One series has as its system leukemia P388 cells. In words: Antitumor activity: life span-prolonging effect in mouse leukemia. Type of series: in vivo, BDF1 mice. The conditions noted are these: for % Increase in survival time / Mean survival time: 3 mg/kg intraperitoneally, day after i.p. injection of 1×10^6 P388 cells, BDF1 mice; for % Increase in survival time: ((D/D0)-1)×100 vs untreated; for Mean survival time: untreated control 9.3 ± 0.8 days. The method, then: The antitumor activity of Substance 4181-2 and its derivatives was evaluated in terms of the increase in life span. One ×10^6 of leukemia P388 cells were intraperitoneally injected to BDF1 mice. Each group consisted of 6 mice. On the following day, each of Compounds 1-4, suspended in 0.2% solution of Tween 80 in physiological saline, was administered intraperitoneally and the survival time in days was determined. The percent increase in survival time was calculated by means of the following formula.
Percent increase in survival time=((D/D0)-1)×100 wherein D0 stands for the mean survival time (days) in the untreated group and D stands for the mean survival time (days) in the treated group.

Series [1] can be described thus: Acute toxicity study (up-and-down method). Details: species or system mice of ddY strain. The conditions noted are these: mouse, in vivo, ip, intraperitoneal, male ddY mice, 25 g. The method, then:
Male mice of ddY strain (body weight 25 g) were used. Each of Compounds 1-4 was suspended in 0.2% solution of Tween 80 in physiological saline and administered intraperitoneally to the animals. The LD50 values (mg/kg) were determined by the up-and-down method.

For series [2] the following is noted: literature statement; cited from earlier work.
Series [3] concerns Aspergillus niger IFO 6341. In words: Antimicrobial spectrum (MIC), two-fold serial dilution. Type of series: cell-based. The conditions noted are these: IFO6341, Sabouraud's agar medium. How it is done: (§1) The antibacterial and antifungal spectra of Substance 4181-2 were investigated. Using nutrient agar medium for gram-positive and gram-negative bacteria and Sabouraud's agar medium for fungi, the minimal inhibitory concentration (MIC) was determined by a two-fold serial dilution method.

Series [4] concerns Bacillus subtilis ATCC 6633. Described as above. The series is classed as cell-based. The conditions noted are these: ATCC6633, nutrient agar medium. How it is done:
as §1

The test system of series [5] is Candida albicans IFO 1061. Described as above. The conditions noted are these: IFO1061, Sabouraud's agar medium. The series is classed as cell-based. How it is done: as §1
Series [6] relates to Escherichia coli B IFO 13168. Described as above. Type of series: cell-based. The conditions noted are these: IFO13168, nutrient agar medium. How it is done:
as §1

The subject of series [7] is Klebsiella pneumoniae ATCC 10031. The description is as above. Type of series: cell-based. The conditions noted are these: ATCC10031, nutrient agar medium. The method, then: as §1
Series [8] has as its system Micrococcus flavus ATCC 10240. Described as above. The series is classed as cell-based. The conditions noted are these: ATCC10240, nutrient agar medium. The method, then:
as §1

Series [9] deals with Penicillium notatum IFO 4640. Described as above. Type of series: cell-based. The conditions noted are these: Penicillium chrysogenum, IFO4640, Sabouraud's agar medium. The method, then: as §1
For series [10], the system named is Proteus vulgalis IFO 3045. The series is described as above. The series is classed as cell-based. The conditions noted are these: nutrient agar medium. How it is done: as §1
Series [11] relates to Pseudomonus fluorescens IFO 12180. Described as above. The series is classed as cell-based. The conditions noted are these: nutrient agar medium. How it is done:
as §1

Series [12] has as its system Saccharomyces delbrueckii IAM 12236. The series is described as above. The series is classed as cell-based. The conditions noted are these: Torulaspora delbrueckii, IAM12236, Sabouraud's agar medium. How it is done: as §1
The test system of series [13] is Staphylococcus aureus 209P. Described as above. The series is classed as cell-based. The conditions noted are these: nutrient agar medium. The method, then:
as §1

Series [14] has as its system Trichophyton mentagrophytes IFO 5466. The description is as above. Type of series: cell-based. The conditions noted are these: IFO5466, Sabouraud's agar medium. How it is done: as §1
The test system of series [15] is microorganisms including gram-positive bacteria, gram-negative bacteria and fungi. The experiment in a line: Antimicrobial activity (summary statement). The series is classed as cell-based. How it is done:
as §1

As to `COc1cc2oc3c(c(=O)c2cc1OC)C(=O)c1c(ccc2cc4c(c(O)c12)C(=O)N1CCOC1(C)C4)C3=O` (stereo not shown) [Compound 3, monomethyl derivative of Substance 4181-2], in the series on leukemia P388 cells, the “% Increase in survival time” value was found to be 63% and the Mean survival time is on record as 15.2 ± 1.7 days. The LD50 – broadly, the dose at which mortality reaches 50% – in series [1] was at least 40 mg/kg.

On to `COc1cc2oc3c(c(=O)c2cc1OC)C(=O)c1c(ccc2cc4c(c(O)c12)C(=O)N1CCOC1(C)C4)C3=O` (stereo not shown) [cervinomycin A2], for which the “antimicrobial activity (in words)” value in series [2] is recorded as “have antimicrobial activity”.

Take `COc1cc2oc3c(c(=O)c2cc1O)C(=O)c1c(ccc2cc4c(c(O)c12)C(=O)N1CCOC1(C)C4)C3=O` (stereo not shown) [Compound 1, Substance 4181-2]: the MIC (usually the least concentration at which growth counts as inhibited) in [3] stood at 3.13 µg/mL (≈ 6.1 µM); in [4], 0.2 µg/mL (≈ 0.39 µM); in [5], 0.39 µg/mL (≈ 0.76 µM); in series [6], 1.56 µg/mL (≈ 3.04 µM); in series [7], 3.13 µg/mL (≈ 6.1 µM); in series [8] it was 0.2 µg/mL (≈ 0.39 µM). Moreover, the MIC in series [9] turned out to be 1.56 µg/mL (≈ 3.04 µM); in series [10], 0.39 µg/mL (≈ 0.76 µM); in series [11], 0.2 µg/mL (≈ 0.39 µM); in series [12], 1.56 µg/mL (≈ 3.04 µM); in series [13], 0.2 µg/mL (≈ 0.39 µM); in series [14], 0.78 µg/mL (≈ 1.52 µM). Moreover, the “% Increase in survival time” value in the series on leukemia P388 cells came to 94%. The same molecule had a Mean survival time with leukemia P388 cells of 18.0 ± 1.4 days. Besides, the “antitumor activity (in words)” value with leukemia P388 cells (summary statement) was “excellent antitumor activity”. This molecule had an LD50 in series [1] of at least 40 mg/kg. Also, the “antimicrobial spectrum (in words)” value in series [15] is on record as “broad antimicrobial spectrum”.

On to `COc1cc2oc3c(O)c4ccc5cc6c(c(O)c5c4c(O)c3c(=O)c2cc1OC)C(=O)N1CCOC1(C)C6` (stereo not shown) [cervinomycin A1], for which the “antimicrobial activity (in words)” value in series [2] is on record as “have antimicrobial activity”.

For `COc1cc2oc3c(c(=O)c2cc1OC)C(=O)c1c(ccc2cc4c(c(OC(C)=O)c12)C(=O)N1CCOC1(C)C4)C3=O` (stereo not shown) [Compound 4, monomethyl monoacetyl derivative of Substance 4181-2], in the series on leukemia P388 cells, the “% Increase in survival time” value is reported as 53% and the Mean survival time was determined as 14.2 ± 0.8 days. Further, in [1], the LD50 is at least 40 mg/kg.

For `COc1cc2oc3c(c(=O)c2cc1OC(C)=O)C(=O)c1c(ccc2cc4c(c(OC(C)=O)c12)C(=O)N1CCOC1(C)C4)C3=O` (stereo not shown) [Compound 2, diacetyl derivative of Substance 4181-2], in the series on leukemia P388 cells, the “% Increase in survival time” value turned out to be 59% and the Mean survival time is on record as 14.8 ± 0.8 days. In series [1], the LD50 was at least 40 mg/kg.
